Assay results reported in ChEMBL document CHEMBL5608244, “Preclinical Evaluation of Dihydropyrazole-Cored Positron Emission Tomography (PET) Ligands for Imaging of Receptor-Interacting Serine/Threonine Protein Kinase 1 (RIPK1) in the Brain” (J Med Chem, 2024).

Columns and labels:
[1] = Stability in saline measured for 60 to 150 mins by reversed-phase HPLC analysis; format: physicochemical; conditions: buffer; time 60-150 min
[2] = Stability in Balb/c mouse plasma measured for 60 to 150 mins by reversed-phase HPLC analysis; format: ADME; conditions: time 60-150 min
[3] = Lipophilicity, logD of compound at pH 7.4 by shake flask method; format: physicochemical; conditions: buffer
[4] = Drug uptake in cerebellum of ICR mouse brain at 0.5 to 10 uM incubated for 30 mins by Phosphor Imager analysis; format: ADME, tissue-based; conditions: 0.5 h, dose 0.5-10 µM
[5] = Drug uptake in thalamus of ICR mouse brain assessed as reduction in radioactivity at 0.5 to 10 uM incubated for 30 mins in presence of 1 uM of GSK'547 by Phosphor Imager analysis; format: ADME, tissue-based; set-up: scale not given: the % may be the effect or the level left; conditions: 0.5 h, dose 0.5-10 µM
[6] = Biodistribution in ICR mouse brain at 0.74 MBq, iv measured after 2 mins by automatic gamma counter analysis; format: ADME, organism-based; conditions: in vivo
[7] = Biodistribution in ICR mouse liver at 0.74 MBq, iv measured after 2 mins by automatic gamma counter analysis; format: ADME, organism-based; conditions: in vivo
[8] = Biodistribution in ICR mouse spleen at 0.74 MBq, iv measured after 2 mins by automatic gamma counter analysis; format: ADME, organism-based; conditions: in vivo
[9] = Biodistribution in ICR mouse lung at 0.74 MBq, iv measured after 2 mins by automatic gamma counter analysis; format: ADME, organism-based; conditions: in vivo
[10] = Biodistribution in ICR mouse kidneys at 0.74 MBq, iv measured after 2 mins by automatic gamma counter analysis; format: ADME, organism-based, Kidney; conditions: in vivo
[11] = Biodistribution in ICR mouse heart at 0.74 MBq, iv measured after 10 mins by automatic gamma counter analysis; format: ADME, organism-based; conditions: in vivo
[12] = Biodistribution in ICR mouse spleen at 0.74 MBq, iv measured after 10 mins by automatic gamma counter analysis; format: ADME, organism-based; conditions: in vivo
[13] = Biodistribution in ICR mouse lung at 0.74 MBq, iv measured after 10 mins by automatic gamma counter analysis; format: ADME, organism-based; conditions: in vivo
[14] = Biodistribution in ICR mouse kidneys at 0.74 MBq, iv measured after 10 mins by automatic gamma counter analysis; format: ADME, organism-based, Kidney; conditions: in vivo
[15] = Biodistribution in ICR mouse muscle at 0.74 MBq, iv measured after 10 mins by automatic gamma counter analysis; format: ADME, organism-based, Muscle tissue; conditions: in vivo
[16] = Biodistribution in ICR mouse bone at 0.74 MBq, iv measured after 10 mins by automatic gamma counter analysis; format: ADME, organism-based, Bone element; conditions: in vivo
[17] = Biodistribution in ICR mouse stomach at 0.74 MBq, iv measured after 10 mins by automatic gamma counter analysis; format: ADME, organism-based; conditions: in vivo
[18] = Biodistribution in ICR mouse heart at 0.74 MBq, iv measured after 30 mins by automatic gamma counter analysis; format: ADME, organism-based; conditions: in vivo, 0.5 h
[19] = Biodistribution in ICR mouse liver at 0.74 MBq, iv measured after 30 mins by automatic gamma counter analysis; format: ADME, organism-based; conditions: in vivo, 0.5 h
[20] = Biodistribution in ICR mouse lung at 0.74 MBq, iv measured after 30 mins by automatic gamma counter analysis; format: ADME, organism-based; conditions: in vivo, 0.5 h
[21] = Biodistribution in ICR mouse muscle at 0.74 MBq, iv measured after 30 mins by automatic gamma counter analysis; format: ADME, organism-based, Muscle tissue; conditions: in vivo, 0.5 h
[22] = Biodistribution in ICR mouse bone at 0.74 MBq, iv measured after 30 mins by automatic gamma counter analysis; format: ADME, organism-based, Bone element; conditions: in vivo, 0.5 h
[23] = Biodistribution in ICR mouse stomach at 0.74 MBq, iv measured after 30 mins by automatic gamma counter analysis; format: ADME, organism-based; conditions: in vivo, 0.5 h
[24] = Biodistribution in ICR mouse blood at 0.74 MBq, iv measured after 60 mins by automatic gamma counter analysis; format: ADME, organism-based; conditions: in vivo, 1 h
[25] = Biodistribution in ICR mouse brain at 0.74 MBq, iv measured after 60 mins by automatic gamma counter analysis; format: ADME, organism-based; conditions: in vivo, 1 h
[26] = Biodistribution in ICR mouse heart at 0.74 MBq, iv measured after 60 mins by automatic gamma counter analysis; format: ADME, organism-based; conditions: in vivo, 1 h
[27] = Biodistribution in ICR mouse liver at 0.74 MBq, iv measured after 60 mins by automatic gamma counter analysis; format: ADME, organism-based; conditions: in vivo, 1 h
[28] = Biodistribution in ICR mouse pancreas at 0.74 MBq, iv measured after 60 mins by automatic gamma counter analysis; format: ADME, organism-based; conditions: in vivo, 1 h
[29] = Biodistribution in ICR mouse muscle at 0.74 MBq, iv measured after 60 mins by automatic gamma counter analysis; format: ADME, organism-based, Muscle tissue; conditions: in vivo, 1 h
[30] = Biodistribution in ICR mouse bone at 0.74 MBq, iv measured after 60 mins by automatic gamma counter analysis; format: ADME, organism-based, Bone element; conditions: in vivo, 1 h
[31] = Biodistribution in ICR mouse small intestine at 0.74 MBq, iv measured after 60 mins by automatic gamma counter analysis; format: ADME, organism-based; conditions: in vivo, 1 h
[32] = Biodistribution in ICR mouse assessed as drug accumulation in lungs at 0.74 MBq, iv pretreated with GSK'547 followed by compound administration measured after 10 mins by automatic gamma counter analysis; format: ADME, organism-based; conditions: in vivo
[33] = Biodistribution in ICR mouse assessed as decrease in drug accumulation in small intestine at 0.74 MBq, iv pretreated with GSK'547 followed by compound administration measured after 10 mins by automatic gamma counter analysis; format: ADME, organism-based; set-up: scale not given: the % may be the effect or the level left; conditions: in vivo
[34] = Drug metabolism in mouse plasma assessed as parent compound remaining at 13.5 MBq, iv measured after 30 mins by HPLC analysis; format: ADME, organism-based; conditions: read-out: Activity
[35] = Drug metabolism in mouse liver assessed as parent compound remaining at 13.5 MBq, iv measured after 30 mins by HPLC analysis; format: ADME, organism-based; conditions: read-out: Activity
[36] = Drug metabolism in mouse liver assessed as polar radiometabolites accumulation at 13.5 MBq, iv measured after 30 mins by HPLC analysis; format: ADME, organism-based; conditions: in vivo, 0.5 h
[37] = Drug uptake in Sprague-Dawley rat brain at 10 to 17.6 MBq, iv treated for about 1 min by PET analysis; format: ADME, organism-based; conditions: in vivo, dose 10-17.6 MBq
[38] = Drug uptake in Sprague-Dawley rat bone at 10 to 17.6 MBq, iv treated upto 30 mins by PET analysis; format: ADME, organism-based, Bone element; conditions: in vivo, 0.5 h, dose 10-17.6 MBq
[39] = Drug uptake in Sprague-Dawley rat brain assessed as reduction in radioactivity at 10 to 17.6 MBq, iv pretreated with GSK'547 followed by compound administration measured upto 30 mins by PET analysis; format: ADME, organism-based; set-up: scale not given: the % may be the effect or the level left; conditions: in vivo, 0.5 h, dose 10-17.6 MBq
[40] = Drug uptake in Sprague-Dawley rat brain assessed as reduction in radioactivity at 10 to 17.6 MBq, iv pretreated with 1-(5-(3-fluorophenyl)-4,5-dihydro-1H-pyrazol-1-yl)-2,2-dimethylpropan-1-one followed by compound administration measured upto 30 mins by PET analysis; format: ADME, organism-based; set-up: scale not given: the % may be the effect or the level left; conditions: in vivo, 0.5 h, dose 10-17.6 MBq
[41] = Drug uptake in brain of Sprague-Dawley rat at 9.9 to 14.8 MBq, iv measured for 5 mins by PET analysis; format: ADME, organism-based; conditions: in vivo, dose 9.9-14.8 MBq
[42] = Drug uptake in brain of TNF-alpha-induced SIRS Sprague-Dawley rat model assessed as decrease in radioactivity at 9.9 to 14.8 MBq, iv measured upto 20 mins by PET analysis; format: ADME, organism-based; set-up: scale not given: the % may be the effect or the level left; conditions: in vivo, dose 9.9-14.8 MBq
[43] = Drug uptake in brain of Sprague-Dawley rat at 9.9 to 14.8 MBq, iv pretreated with 1-(5-(3-fluorophenyl)-4,5-dihydro-1H-pyrazol-1-yl)-2,2-dimethylpropan-1-one measured upto 20 mins by PET analysis; format: ADME, organism-based; conditions: in vivo, dose 9.9-14.8 MBq

SMILES: CC(C)(C)C(=O)N1N=CCC1c1cccc([18F])c1 (stereo not drawn)
- Stability [1]: > 99%
- Stability [2]: > 98%
- logD [3]: 2.25
- Drug uptake [4]: Active
- Activity [5]: ~ 18%
- Drug uptake [6]: 4.89 % ID/g
- Drug uptake [7]: 10.83 % ID/g
- Drug uptake [8]: 3.17 % ID/g
- Drug uptake [9]: 16.41 % ID/g
- Drug uptake [10]: 10.39 % ID/g
- Drug uptake [11]: 3.27 % ID/g
- Drug uptake [12]: 1.99 % ID/g
- Drug uptake [13]: 7.23 % ID/g
- Drug uptake [14]: 18.03 % ID/g
- Drug uptake [15]: 2.48 % ID/g
- Drug uptake [16]: 4.17 % ID/g
- Drug uptake [17]: 0.64 % ID/g
- Drug uptake [18]: 1.3 % ID/g
- Drug uptake [19]: 7.56 % ID/g
- Drug uptake [20]: 2.58 % ID/g
- Drug uptake [21]: 1.13 % ID/g
- Drug uptake [22]: 8.26 % ID/g
- Drug uptake [23]: 0.44 % ID/g
- Drug uptake [24]: 0.57 % ID/g
- Drug uptake [25]: 0.21 % ID/g
- Drug uptake [26]: 0.5 % ID/g
- Drug uptake [27]: 2.69 % ID/g
- Drug uptake [28]: 1.46 % ID/g
- Drug uptake [29]: 0.47 % ID/g
- Drug uptake [30]: 5.69 % ID/g
- Drug uptake [31]: 30.6 % ID/g
- Drug uptake [32]: 15.6%
- Activity [33]: 13.3%
- remaining at 0.5 h [34]: 1.2%
- remaining at 0.5 h [35]: 1.5%
- Drug metabolism [36]: Metabolite_Detected
- SUVmax [37]: 1.3
- Drug uptake [38]: Not Active
- Activity [39]: 25.9%
- Activity [40]: 21.7%
- Drug uptake [41]: Active
- Activity [42]: 9.1%
- Drug uptake [43]: 9.8%
